Measured values reported in patent publication US8518945B2, “Pyrrolopyrazine kinase inhibitors” (Hoffmann-La Roche Inc., priority 2010, dated 2013).

Biological target: T1, h-jak3(810-1124) (JAK3: Recombinant human kinase domain) (Homo sapiens, UniProt P52333)
T1 construct: jak3(810- 1124)-sf9-c; made in house; host or cells: Sf9
Assay: Determination of IC50 of Janus Kinase (JAK) inhibition: JAK3 radioactive end-point 33P-ATP kinase assay
Assay type: biochemical
Conditions: no additive; ATP 1.5 uM, peptide 50 uM, 20 minutes, room temperature; read-out: Ic50 h-jak3(810-1124)-sf9-c: no additive

T1 sequence (P52333 810-1124): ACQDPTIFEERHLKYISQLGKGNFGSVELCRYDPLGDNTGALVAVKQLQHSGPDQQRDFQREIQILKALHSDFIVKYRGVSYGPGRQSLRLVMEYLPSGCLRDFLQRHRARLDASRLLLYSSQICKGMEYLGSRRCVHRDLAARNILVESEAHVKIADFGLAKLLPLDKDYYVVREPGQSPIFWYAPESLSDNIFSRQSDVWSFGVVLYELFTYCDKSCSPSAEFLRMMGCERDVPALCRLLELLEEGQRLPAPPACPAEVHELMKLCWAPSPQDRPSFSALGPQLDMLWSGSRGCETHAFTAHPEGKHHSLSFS

| SMILES | IC50 |
| --- | --- |
| CCC1(C#N)CN(C(=O)[C@H](NC(=O)c2c[nH]c3ncc(-c4cnn(C)c4)nc23)C2CC2)C1 [Example I-151, 2-(1-Methyl-1H-pyrazol-4-yl)-5H-pyrrolo[2,3-b]pyrazine-7-carboxylic acid [(R)-2-(3-cyano-3-ethyl-azetidin-1-yl)-1-cyclopropyl-2-oxo-ethyl]-amide] | ≤ 0.32 nM |
| C[C@@H](NC(=O)c1c[nH]c2ncc(-c3cc4nccc(OCC(F)(F)F)c4s3)nc12)C(=O)N1CC(C#N)C1 [Example I-102, 2-[7-(2,2,2-Trifluoro-ethoxy)-thieno[3,2-b]pyridin-2-yl]-5H-pyrrolo[2,3-b]pyrazine-7-carboxylic acid [(R)-2-(3-cyano-azetidin-1-yl)-1-methyl-2-oxo-ethyl]-amide] | 43.1 nM |
| CN(C)c1ccc(-c2cnc3[nH]cc(C(=O)N[C@@H](C(=O)N4CC(C#N)C4)C4CC4)c3n2)cc1 [Example I-164, 2-(4-Dimethylamino-phenyl)-5H-pyrrolo[2,3-b]pyrazine-7-carboxylic acid [(R)-2-(3-cyano-azetidin-1-yl)-1-cyclopropyl-2-oxo-ethyl]-amide] | ≤ 0.32 nM |
| Cc1nc(-c2cnc3[nH]cc(C(=O)N[C@@H](C(=O)N4CC(C#N)C4)C4CC4)c3n2)cn1-c1ccccc1 [Example I-159, 2-(2-Methyl-1-phenyl-1H-imidazol-4-yl)-5H-pyrrolo[2,3-b]pyrazine-7-carboxylic acid [(R)-2-(3-cyano-azetidin-1-yl)-1-cyclopropyl-2-oxo-ethyl]-amide] | 2.66 nM |
| CC(C)(C)[C@@H](NC(=O)c1c[nH]c2ncc(C3CC3)nc12)C(=O)N1CCC(O)(c2ccccc2)CC1 [Example I-65, 2-Cyclopropyl-5H-pyrrolo[2,3-b]pyrazine-7-carboxylic acid [(R)-1-(4-hydroxy-4-phenyl-piperidine-1-carbonyl)-2,2-dimethyl-propyl]-amide] | 0.87 nM |
| N#CC1CCN(C(=O)[C@@H](NC(=O)c2c[nH]c3ncc(C4CC4)nc23)C2(C(F)(F)F)CC2)CC1 [Example I-46, 2-Cyclopropyl-5H-pyrrolo[2,3-b]pyrazine-7-carboxylic acid [(S)-2-(4-cyano-piperidin-1-yl)-2-oxo-1-(1-trifluoromethyl-cyclopropyl)-ethyl]-amide] | 4.29 nM |
| C[C@@H](NC(=O)c1c[nH]c2ncc(-c3cc(C4=CCCC4)ccn3)nc12)C(=O)N1CC(C#N)C1 [Example I-113, 2-(4-Cyclopent-1-enyl-pyridin-2-yl)-5H-pyrrolo[2,3-b]pyrazine-7-carboxylic acid [(R)-2-(3-cyano-azetidin-1-yl)-1-methyl-2-oxo-ethyl]-amide] | 3.71 nM |
| CC(C)(C)[C@@H](NC(=O)c1c[nH]c2ncc(C3CC3)nc12)C(=O)N1CCCCC1 [Example I-32, 2-Cyclopropyl-5H-pyrrolo[2,3-b]pyrazine-7-carboxylic acid [(R)-2,2-dimethyl-1-(piperidine-1-carbonyl)-propyl]-amide] | 0.98 nM |
| Cn1cc(-c2cnc3[nH]cc(C(=O)N[C@@H](C(=O)N4CC[C@@H](C#N)C4)C4CC4)c3n2)cn1 [Example I-82, 2-(1-Methyl-1H-pyrazol-4-yl)-5H-pyrrolo[2,3-b]pyrazine-7-carboxylic acid [(R)-2-((R)-3-cyano-pyrrolidin-1-yl)-1-cyclopropyl-2-oxo-ethyl]-amide] | ≤ 0.32 nM |
| C[C@@H](NC(=O)c1c[nH]c2ncc(C3CC3)nc12)C(=O)N1CCC(O)C1 (stereo partly drawn) [Example I-11, 2-Cyclopropyl-5H-pyrrolo[2,3-b]pyrazine-7-carboxylic acid [(R)-2-(3-hydroxy-pyrrolidin-1-yl)-1-methyl-2-oxo-ethyl]-amide] | 91.5 nM |
| C[C@@H](NC(=O)c1c[nH]c2ncc(-c3cc(OCC4CC4)ccn3)nc12)C(=O)N1CC(C#N)C1 [Example I-131, 2-(4-Cyclopropylmethoxy-pyridin-2-yl)-5H-pyrrolo[2,3-b]pyrazine-7-carboxylic acid [(R)-2-(3-cyano-azetidin-1-yl)-1-methyl-2-oxo-ethyl]-amide] | 2.58 nM |
| Cn1cc(-c2cnc3[nH]cc(C(=O)N[C@@H](C(=O)N4CC(C#N)C4)C4CCCCC4)c3n2)cn1 [Example I-76, 2-(1-Methyl-1H-pyrazol-4-yl)-5H-pyrrolo[2,3-b]pyrazine-7-carboxylic acid [(R)-2-(3-cyano-azetidin-1-yl)-1-cyclohexyl-2-oxo-ethyl]-amide] | 11.8 nM |
| N#CC1CCN(C(=O)[C@H](NC(=O)c2c[nH]c3ncc(-c4cc(-c5ccccc5)ccn4)nc23)C2CC2)CC1 [Example I-147, 2-(4-Phenyl-pyridin-2-yl)-5H-pyrrolo[2,3-b]pyrazine-7-carboxylic acid [(R)-2-(4-cyano-piperidin-1-yl)-1-cyclopropyl-2-oxo-ethyl]-amide] | 4.46 nM |
| N#CC1CN(C(=O)[C@H](NC(=O)c2c[nH]c3ncc(-c4ccccc4)nc23)C2CC2)C1 [Example I-166, 2-Phenyl-5H-pyrrolo[2,3-b]pyrazine-7-carboxylic acid [(R)-2-(3-cyano-azetidin-1-yl)-1-cyclopropyl-2-oxo-ethyl]-amide] | ≤ 0.32 nM |
| CCn1cc(-c2cnc3[nH]cc(C(=O)N[C@@H](C(=O)N4CCCC4)C(C)(C)C)c3n2)cn1 [Example I-13, 2-(1-Ethyl-1H-pyrazol-4-yl)-5H-pyrrolo[2,3-b]pyrazine-7-carboxylic acid [(R)-2,2-dimethyl-1-(pyrrolidine-1-carbonyl)-propyl]-amide] | 4.53 nM |
| CC[C@@H](NC(=O)c1c[nH]c2ncc(C3CC3)nc12)C(=O)N1CCCC1 [Example I-3, 2-Cyclopropyl-5H-pyrrolo[2,3-b]pyrazine-7-carboxylic acid [(R)-1-(pyrrolidine-1-carbonyl)-propyl]-amide] | 11.7 nM |
| N#CC1CCN(C(=O)[C@H](NC(=O)c2c[nH]c3ncc(-c4cn(-c5ccccc5)nn4)nc23)C2CC2)CC1 [Example I-108, 2-(1-Phenyl-1H-[1,2,3]triazol-4-yl)-5H-pyrrolo[2,3-b]pyrazine-7-carboxylic acid [(R)-2-(4-cyano-piperidin-1-yl)-1-cyclopropyl-2-oxo-ethyl]-amide] | 6.05 nM |
| CC(C)(C)[C@@H](NC(=O)c1c[nH]c2ncc(-c3cc(OC4CCCC4)ccn3)nc12)C(=O)N1CCC(C#N)CC1 [Example I-130, 2-(4-Cyclopentyloxy-pyridin-2-yl)-5H-pyrrolo[2,3-b]pyrazine-7-carboxylic acid [(R)-1-(4-cyano-piperidine-1-carbonyl)-2,2-dimethyl-propyl]-amide] | 113 nM |
| CC(C)C[C@@H](NC(=O)c1c[nH]c2ncc(-c3cnn(C)c3)nc12)C(=O)N1CC(C#N)C1 [Example I-69, 2-(1-Methyl-1H-pyrazol-4-yl)-5H-pyrrolo[2,3-b]pyrazine-7-carboxylic acid [(R)-1-(3-cyano-azetidine-1-carbonyl)-3-methyl-butyl]-amide] | ≤ 0.32 nM |
| Cn1cnc(-c2cnc3[nH]cc(C(=O)N[C@@H](C(=O)N4CCC(C#N)CC4)C(C)(C)C)c3n2)c1 [Example I-77, 2-(1-Methyl-1H-imidazol-4-yl)-5H-pyrrolo[2,3-b]pyrazine-7-carboxylic acid [(R)-1-(4-cyano-piperidine-1-carbonyl)-2,2-dimethyl-propyl]-amide] | ≤ 0.32 nM |
| N#CC1CCN(C(=O)[C@@H](Cc2ccccc2)NC(=O)c2c[nH]c3ncc(C4CC4)nc23)CC1 [Example I-48, 2-Cyclopropyl-5H-pyrrolo[2,3-b]pyrazine-7-carboxylic acid [(R)-1-benzyl-2-(4-cyano-piperidin-1-yl)-2-oxo-ethyl]-amide] | 0.6 nM |
| Cn1cc(-c2cnc3[nH]cc(C(=O)N[C@@H](C(=O)N4CC(C)(C#N)C4)C(C)(C)C)c3n2)cn1 [Example I-143, 2-(1-Methyl-1H-pyrazol-4-yl)-5H-pyrrolo[2,3-b]pyrazine-7-carboxylic acid [(R)-1-(3-cyano-3-methyl-azetidine-1-carbonyl)-2,2-dimethyl-propyl]-amide] | 0.42 nM |
| C[C@@H](NC(=O)c1c[nH]c2ncc(C3CC3)nc12)C(=O)N1CC[C@@H](F)C1 [Example I-23, 2-Cyclopropyl-5H-pyrrolo[2,3-b]pyrazine-7-carboxylic acid [(R)-2-((R)-3-fluoro-pyrrolidin-1-yl)-1-methyl-2-oxo-ethyl]-amide] | 9.53 nM |
| Cn1cc(-c2cnc3[nH]cc(C(=O)N[C@@H](C(=O)N4CC[C@H](C#N)C4)C4CC4)c3n2)cn1 [Example I-81, 2-(1-Methyl-1H-pyrazol-4-yl)-5H-pyrrolo[2,3-b]pyrazine-7-carboxylic acid [(R)-2-((S)-3-cyano-pyrrolidin-1-yl)-1-cyclopropyl-2-oxo-ethyl]-amide] | ≤ 0.32 nM |
| CCn1cc(-c2cnc3[nH]cc(C(=O)N[C@H](CC(F)(F)F)C(=O)N4CCC(C#N)CC4)c3n2)cn1 [Example I-106, 2-(1-Ethyl-1H-pyrazol-4-yl)-5H-pyrrolo[2,3-b]pyrazine-7-carboxylic acid [(R)-1-(4-cyano-piperidine-1-carbonyl)-3,3,3-trifluoro-propyl]-amide] | 2.61 nM |
| N#CC1CCN(C(=O)[C@H](NC(=O)c2c[nH]c3ncc(-c4cn(C5CCCC5)nn4)nc23)C2CC2)CC1 [Example I-107, 2-(1-Cyclopentyl-1H-[1,2,3]triazol-4-yl)-5H-pyrrolo[2,3-b]pyrazine-7-carboxylic acid [(R)-2-(4-cyano-piperidin-1-yl)-1-cyclopropyl-2-oxo-ethyl]-amide] | 6.57 nM |
| CC(C)(C)[C@@H](NC(=O)c1c[nH]c2ncc(-c3cn(CC4CC4)cn3)nc12)C(=O)N1CCC(C#N)CC1 [Example I-119, 2-(1-Cyclopropylmethyl-1H-imidazol-4-yl)-5H-pyrrolo[2,3-b]pyrazine-7-carboxylic acid [(R)-1-(4-cyano-piperidine-1-carbonyl)-2,2-dimethyl-propyl]-amide] | 2.74 nM |
| CC(C)(C)[C@@H](NC(=O)c1c[nH]c2ncc(OC3CCCC3)nc12)C(=O)N1CCC(C#N)CC1 [Example I-92, 2-Cyclopentyloxy-5H-pyrrolo[2,3-b]pyrazine-7-carboxylic acid [(R)-1-(4-cyano-piperidine-1-carbonyl)-2,2-dimethyl-propyl]-amide] | 10.9 nM |
